The text below walks through data of patent US6592867B2, “Antimicrobial composition containing an oxidoreductase and an enhancer of the N-hydroxyanilide-type” (Novozymes A/S, priority 1998, dated 2003).

For one experiment, the system named is Pseudomonas fluorescens. As to the kind of experiment: Bactericidal activity of phenol oxidizing enzyme plus enhancing agent, surviving cells enumerated by Malthus (Examples 1 and 3). In kind it is cell-based. The following applies: 20 min, 40° C. As to the method:
(§1) Antimicrobial activity was evaluated in 0.05 M MES-buffer (Sigma M8250) (pH 6) or 0.05 HEPES-buffer (Sigma H3375) (pH 8); buffers were sterilised by filter sterilisation. The antimicrobial activity was determined against Pseudomonas fluorescens (Gram et al. 1990, International Journal of Food Microbiology 10: 303-316) and Staphylococcus epidermidis (DSM 20042). Cells were grown in Tryptone Soya Broth (Oxoid CM129) at 30° C. (S. epidermidis) or 25° C. (P. fluorescens) for 24 h and diluted in the MES-buffer to a final cell concentration of approximately 10^6 cfu/ml. The cell suspensions were mixed with rCiP (3 POXU/ml), enhancing agent (0.2 mM) and hydrogen peroxide (0.5 mM) for 20 min at 40° C. The bactericidal activity was determined by incubation in Malthus. Detection times measured by the Malthus instrument were converted to cfu/ml by a calibration curve. Either direct or Indirect Malthus measurements were used when enumerating total survival cells (Malthus Flexi M2060, Malthus Instrument Limited). By the direct measurements, the cell metabolism was determined by conductance measurements in the growth substrate. By the indirect measurements, 3 ml of growth medium was transferred to the outer chamber of the indirect Malthus cells, and 0.5 ml of sterile KOH (0.1 M) was transferred to the inner chamber. The cell suspensions were after enzyme treatment transferred to the outer chamber of the Malthus cell. As cells are growing in the outer chamber they produce CO2 which will dissolve in the KOH in the inner chamber and thereby change the conductance of the KOH. The amount of CO2 formed by the respiring cells surviving the enzyme treatment was used for estimating the number of viable cells. When the conductance change is measurable by the Malthus, a detection time (dt) will be recorded. The dt's were converted to colony counts by use of a calibration curve relating cfu/ml to dt (Johansen et al. 1995. Journal of Applied Bacteriology 78:297-303, Johansen et al. 1997, Applied and Environmental Microbiology 63:3724-3728). Antibacterial activity of Coprinus cinereus peroxidase (rCiP), Polyporus pinsitus laccase (rPpL), Coprinus cinereus laccase (rCcL) and Rhizoctonia solani laccase (rRsL) (as described in WO 95/07988) was determined with different enhancing agents at pH 6 and 8 (buffers; see Example 1). The rCiP was combined with 0.5 mM hydrogen peroxide. Antimicrobial activity of rCiP and rPpL was determined against Pseudomonas fluorescens (Gram et al. 1990, International Journal of Food Microbiology 10:303-316), whereas antimicrobial activity of rCcL and rRsL was determined against Pseudomonas aeruginosa (ATCC 10145). The bactericidal activity was determined as described in example 1. The results are shown as the reduction in living cell number. Thus, a reduction of 4 correspond to a 4 log reduction of living cells e.g. from 10^6 CFU/ml to 10^2 CFU/ml.

In experiment [1] the test system is Pseudomonas aeruginosa (ATCC 10145). The experiment is described as follows: Bactericidal activity of laccase plus enhancing agent, surviving cells enumerated by Malthus (Examples 2 and 3). It is filed as cell-based. The following applies: 20 min, 40° C. As to the method:
as §1, with “The antimicrobial” for “Antimicrobial activity was evaluated in 0.05 M MES-buffer (Sigma M8250) (pH 6) or 0.05 HEPES-buffer (Sigma H3375) (pH 8); buffers were sterilised by filter sterilisation. The antimicrobial”, “activity of Polyporus pinsitus laccase (rPpL), obtained as described in WO 96/00290), and Coprinus cinereus laccase (rCcL), obtained as described in WO 97/08325, was determined with N-hydroxyacetanilide as enhancing agent against Pseudomonas aeruginosa (ATCC 10145), Enterobacter aerogenes (ATCC 13048) and Enterococcus faecalis (DSM 2570). The bactericidal activity was determined as described in Example 1, the antimicrobial activity of rPpL (1 mg/L) was evaluated at pH 6, whereas rCcL (1 mg/L) was evaluated at pH 8. Antibacterial activity of Coprinus cinereus” for “activity of Coprinus cinereus”

Where [2] appears, read: rCiP = 3 POXU/ml + 0.5 mM hydrogen peroxide, pH 6.
The mark [3] stands for this setting: rCiP = 3 POXU/ml + 0.5 mM hydrogen peroxide, pH 8.

In the case of `CC(=O)c1ccc(N(O)C(C)=O)cc1` [N1-(4-acetylphenyl)-N1-hydroxyacetamide], the “Bactericidal activity (reduction in living cell number)” value in the experiment on Pseudomonas fluorescens (setting [2]) is 1.2 log CFU/ml.

As to `CC(=O)N(O)c1ccc(C#N)cc1` [N1-(4-cyanophenyl)-N1-hydroxyacetamide], in the experiment on Pseudomonas fluorescens (rPpL = 5 mg/L, pH 6), the “Bactericidal activity (reduction in living cell number)” value was 1.7 log CFU/ml.

For the compound `CC(=O)N(O)c1ccc(O)cc1` [N1-(4-hydroxyphenyl)-N1-hydroxyacetamide], the “Bactericidal activity (reduction in living cell number)” value in the experiment on Pseudomonas fluorescens (setting [2]) is on record as 3.7 log CFU/ml; in the experiment on Pseudomonas fluorescens (setting [3]), 1.1 log CFU/ml.

On to `CC(=O)N(O)c1cccc([N+](=O)[O-])c1` [N1-hydroxy-N1-(3-nitrophenyl)acetamide], for which the “Bactericidal activity (reduction in living cell number)” value with Pseudomonas fluorescens (setting [2]) is recorded as 1.5 log CFU/ml; in the experiment with Pseudomonas fluorescens (setting [3]), 1.1 log CFU/ml; with Pseudomonas fluorescens (rPpL = 5 mg/L, pH 6) it was 1.6 log CFU/ml.

On to `CC(=O)N(O)c1ccc([N+](=O)[O-])cc1` [N1-hydroxy-N1-(4-nitrophenyl)acetamide], for which the “Bactericidal activity (reduction in living cell number)” value in the experiment with Pseudomonas fluorescens (setting [2]) stood at 4.2 log CFU/ml; in the experiment on Pseudomonas fluorescens (setting [3]), 1.2 log CFU/ml; in the experiment with Pseudomonas fluorescens (rPpL = 5 mg/L, pH 6), 6.7 log CFU/ml; with Pseudomonas fluorescens (rPpL = 5 mg/L, pH 8), 1.7 log CFU/ml.

Consider `N#Cc1ccc(C(=O)N(O)c2ccccc2)cc1` [N1-hydroxy-N1-phenyl-4-cyanobenzamide], for which the “Bactericidal activity (reduction in living cell number)” value in the experiment with Pseudomonas fluorescens (setting [2]) is reported as 6.1 log CFU/ml; with Pseudomonas fluorescens (setting [3]) it was 2.1 log CFU/ml; in the experiment with Pseudomonas fluorescens (rPpL = 5 mg/L, pH 6) it was 2.5 log CFU/ml; in experiment [1] (rCcL = 5 mg/L, pH 6) it was 3.5 log CFU/ml; in experiment [1] (rCcL = 5 mg/L, pH 8) it was 6.5 log CFU/ml; in experiment [1] (rRsL = 5 mg/L, pH 6) it was 3.5 log CFU/ml. For the same compound, the “Bactericidal activity (reduction in living cell number)” value in experiment [1] (rRsL = 5 mg/L, pH 8) was 6.5 log CFU/ml.

As for `COc1ccc(C(=O)N(O)c2ccccc2)cc1` [N1-hydroxy-N1-phenyl-4-methoxybenzamide], the “Bactericidal activity (reduction in living cell number)” value in the experiment with Pseudomonas fluorescens (setting [2]) came to 4.1 log CFU/ml; with Pseudomonas fluorescens (rPpL = 5 mg/L, pH 8), 4.8 log CFU/ml; in experiment [1] (rCcL = 5 mg/L, pH 6), 5.9 log CFU/ml; in experiment [1] (rCcL = 5 mg/L, pH 8) it was 6.3 log CFU/ml; in experiment [1] (rRsL = 5 mg/L, pH 6), 3.8 log CFU/ml; in experiment [1] (rRsL = 5 mg/L, pH 8), 4.6 log CFU/ml.

`O=C(c1ccc([N+](=O)[O-])cc1)N(O)c1ccccc1` [N1-hydroxy-N1-phenyl-4-nitrobenzamide]: the “Bactericidal activity (reduction in living cell number)” value with Pseudomonas fluorescens (setting [3]) is on record as 1.4 log CFU/ml.
